Measured values from PubChem BioAssay AID1963832 (Molecular Pharmacology Branch, DTP, NCI, 2024).

Test system: 885724-159-R-J1-PDC complex spheroid viability
Assay: Anticancer human tumor 885724-159-R-J1-PDC patient-derived pancreatic adenocarcinoma cell line growth inhibition [POLQ]
Conditions: for IC50: curve of first compound; for viability, T/C: stronger effect = lower value
Procedure, shortened: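 Growth inhibition in 3D: complex spheroids (tumor PDC, HUVEC, MSC) treated with POLQ inhibitor combinations; where Cmax unknown, highest tested concentration 10 microM, except SN-38 at 1 microM.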

[1] = second compound 0.0316 µM, first compound 0.0316 µM
[2] = second compound 0.0316 µM, first compound 0.1 µM
[3] = second compound 0.0316 µM, first compound 0.316 µM
[4] = second compound 0.0316 µM, first compound 1 µM
[5] = second compound 0.0316 µM, first compound 3.16 µM
[6] = second compound 0.0316 µM, first compound 10 µM
[7] = second compound 0.1 µM, first compound 0.0316 µM
[8] = second compound 0.1 µM, first compound 0.1 µM
[9] = second compound 0.1 µM, first compound 0.316 µM
[10] = second compound 0.1 µM, first compound 1 µM
[11] = second compound 0.1 µM, first compound 3.16 µM
[12] = second compound 0.1 µM, first compound 10 µM
[13] = second compound 0.316 µM, first compound 0.0316 µM
[14] = second compound 0.316 µM, first compound 0.1 µM
[15] = second compound 0.316 µM, first compound 0.316 µM
[16] = second compound 0.316 µM, first compound 1 µM
[17] = second compound 0.316 µM, first compound 3.16 µM
[18] = second compound 0.316 µM, first compound 10 µM
[19] = second compound 1 µM, first compound 0.0316 µM
[20] = second compound 1 µM, first compound 0.1 µM
[21] = second compound 1 µM, first compound 0.316 µM
[22] = second compound 1 µM, first compound 1 µM
[23] = second compound 1 µM, first compound 3.16 µM
[24] = second compound 1 µM, first compound 10 µM
[25] = second compound 3.16 µM, first compound 0.0316 µM
[26] = second compound 3.16 µM, first compound 0.1 µM
[27] = second compound 3.16 µM, first compound 0.316 µM
[28] = second compound 3.16 µM, first compound 1 µM
[29] = second compound 3.16 µM, first compound 3.16 µM
[30] = second compound 3.16 µM, first compound 10 µM
[31] = second compound 10 µM, first compound 0.0316 µM
[32] = second compound 10 µM, first compound 0.1 µM
[33] = second compound 10 µM, first compound 0.316 µM
[34] = second compound 10 µM, first compound 1 µM
[35] = second compound 10 µM, first compound 3.16 µM
[36] = second compound 10 µM, first compound 10 µM
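Also: spheroids exposed to compounds for 7 days.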

With `C#Cc1c(F)ccc2cc(O)cc(-c3ncc4c(N5CC6CCC(C5)N6)nc(OCC56CCCN5CC(F)C6)nc4c3F)c12` (stereo not drawn) + Nc1ccc(C#CCN(C(=O)Cc2ncc(C(F)(F)F)cc2C(F)(F)F)c2ccc(F)cc2)nn1 the IC50 (second compound 0.0316 µM) was 2190 nM, the IC50 (second compound 0.1 µM) was 3200 nM and the IC50 (second compound 0.316 µM) was 2780 nM. For the same compound, the IC50 (second compound 1 µM) was 2950 nM, the IC50 (second compound 3.16 µM) was 3040 nM and the IC50 (second compound 10 µM) was 3030 nM. It also gave a viability, T/C [1] of 90.8%, a viability, T/C [2] of 92.6% and a viability, T/C [3] of 90.7%. It also gave a viability, T/C [4] of 64.2%, a viability, T/C [5] of 44.2% and a viability, T/C [6] of 23.8%. The viability, T/C [7] was 95.9%, the viability, T/C [8] was 100% and the viability, T/C [9] was 93.9%. The viability, T/C [10] was 73%, the viability, T/C [11] was 52.1% and the viability, T/C [12] was 25.3%. It also gave a viability, T/C [13] of 116%, a viability, T/C [14] of 88.4% and a viability, T/C [15] of 84.3%. For the same compound, the viability, T/C [16] was 71.2%, the viability, T/C [17] was 50.6% and the viability, T/C [18] was 23.4%. It also gave a viability, T/C [19] of 89.9%, a viability, T/C [20] of 96.6% and a viability, T/C [21] of 86.7%. It also gave a viability, T/C [22] of 71.3%, a viability, T/C [23] of 49.6% and a viability, T/C [24] of 24.2%. For the same compound, the viability, T/C [25] was 85.3%, the viability, T/C [26] was 87.2% and the viability, T/C [27] was 89.1%. For the same compound, the viability, T/C [28] was 75.9%, the viability, T/C [29] was 49.5% and the viability, T/C [30] was 24.5%. The viability, T/C [31] was 98.6%, the viability, T/C [32] was 89% and the viability, T/C [33] was 96.8%. It also gave a viability, T/C [34] of 72.6%, a viability, T/C [35] of 50.4% and a viability, T/C [36] of 22.9%.
Work on `CC1COCCN1c1cc(C2(O)CC3CCC(C2)O3)c2cnn(-c3ccn[nH]3)c2n1` (stereo not drawn) + Nc1ccc(C#CCN(C(=O)Cc2ncc(C(F)(F)F)cc2C(F)(F)F)c2ccc(F)cc2)nn1 yielded an IC50 (second compound 0.0316 µM) of 321 nM, an IC50 (second compound 0.1 µM) of 237 nM and an IC50 (second compound 0.316 µM) of 177 nM. It also gave an IC50 (second compound 1 µM) of 237 nM, an IC50 (second compound 3.16 µM) of 202 nM and an IC50 (second compound 10 µM) of 236 nM. It also gave a viability, T/C [1] of 72.7%, a viability, T/C [2] of 54.7% and a viability, T/C [3] of 50.8%. The viability, T/C [4] was 42.6%, the viability, T/C [5] was 36.3% and the viability, T/C [6] was 26.8%. The viability, T/C [7] was 77.8%, the viability, T/C [8] was 58.3% and the viability, T/C [9] was 46.2%. It also gave a viability, T/C [10] of 40.6%, a viability, T/C [11] of 37.4% and a viability, T/C [12] of 31.4%. It also gave a viability, T/C [13] of 72.4%, a viability, T/C [14] of 52.5% and a viability, T/C [15] of 45.2%. For the same compound, the viability, T/C [16] was 38.9%, the viability, T/C [17] was 39.9% and the viability, T/C [18] was 28.4%. It also gave a viability, T/C [19] of 65.2%, a viability, T/C [20] of 51.5% and a viability, T/C [21] of 47.7%. For the same compound, the viability, T/C [22] was 43.6%, the viability, T/C [23] was 35.9% and the viability, T/C [24] was 27%. The viability, T/C [25] was 67%, the viability, T/C [26] was 53% and the viability, T/C [27] was 45.4%. The viability, T/C [28] was 43.5%, the viability, T/C [29] was 35.3% and the viability, T/C [30] was 30.4%. The viability, T/C [31] was 62.9%, the viability, T/C [32] was 53% and the viability, T/C [33] was 49.4%. It also gave a viability, T/C [34] of 41.8%, a viability, T/C [35] of 37% and a viability, T/C [36] of 30.5%.
In the case of `CCc1cc2c(N3CCc4c(cc(Cn5ccnc5)cc4-c4cn(C)nc4C(F)(F)F)C3=O)cc(C)nc2c(OC)n1` + Nc1ccc(C#CCN(C(=O)Cc2ncc(C(F)(F)F)cc2C(F)(F)F)c2ccc(F)cc2)nn1, the IC50 (second compound 0.0316 µM) is reported as > 10000 nM, the IC50 (second compound 0.1 µM) is reported as > 10000 nM and the IC50 (second compound 0.316 µM) is reported as > 10000 nM. The IC50 (second compound 1 µM) was > 10000 nM, the IC50 (second compound 3.16 µM) was > 10000 nM and the IC50 (second compound 10 µM) was > 10000 nM. The viability, T/C [1] was 84.1%, the viability, T/C [2] was 82.4% and the viability, T/C [3] was 79.4%. It also gave a viability, T/C [4] of 79.3%, a viability, T/C [5] of 75.8% and a viability, T/C [6] of 69.2%. For the same compound, the viability, T/C [7] was 91.8%, the viability, T/C [8] was 87.3% and the viability, T/C [9] was 75.8%. The viability, T/C [10] was 77.1%, the viability, T/C [11] was 70.9% and the viability, T/C [12] was 60.3%. It also gave a viability, T/C [13] of 86.7%, a viability, T/C [14] of 84.8% and a viability, T/C [15] of 82.2%. For the same compound, the viability, T/C [16] was 85.2%, the viability, T/C [17] was 69.5% and the viability, T/C [18] was 69.7%. It also gave a viability, T/C [19] of 89%, a viability, T/C [20] of 90.9% and a viability, T/C [21] of 78.3%. The viability, T/C [22] was 71.8%, the viability, T/C [23] was 73.1% and the viability, T/C [24] was 67.2%. The viability, T/C [25] was 79.3%, the viability, T/C [26] was 72% and the viability, T/C [27] was 78.3%. It also gave a viability, T/C [28] of 85.4%, a viability, T/C [29] of 75.2% and a viability, T/C [30] of 69.8%. The viability, T/C [31] was 88%, the viability, T/C [32] was 88% and the viability, T/C [33] was 85.2%. The viability, T/C [34] was 76.8%, the viability, T/C [35] was 89.9% and the viability, T/C [36] was 73%.
With `O=C(Nc1ccc(O)c(NS(=O)(=O)c2ccc(F)cc2)c1)c1ccc(-c2ccccc2)cc1` + Nc1ccc(C#CCN(C(=O)Cc2ncc(C(F)(F)F)cc2C(F)(F)F)c2ccc(F)cc2)nn1 the IC50 (second compound 0.0316 µM) was > 10000 nM, the IC50 (second compound 0.1 µM) was > 10000 nM and the IC50 (second compound 0.316 µM) was > 10000 nM. The IC50 (second compound 1 µM) was > 10000 nM, the IC50 (second compound 3.16 µM) was > 10000 nM and the IC50 (second compound 10 µM) was > 10000 nM. It also gave a viability, T/C [1] of 97.8%, a viability, T/C [2] of 94.2% and a viability, T/C [3] of 97.4%. For the same compound, the viability, T/C [4] was 97.6%, the viability, T/C [5] was 110% and the viability, T/C [6] was 93.3%. For the same compound, the viability, T/C [7] was 102%, the viability, T/C [8] was 95.3% and the viability, T/C [9] was 112%. It also gave a viability, T/C [10] of 101%, a viability, T/C [11] of 111% and a viability, T/C [12] of 96.4%. The viability, T/C [13] was 103%, the viability, T/C [14] was 93.2% and the viability, T/C [15] was 94.7%. It also gave a viability, T/C [16] of 103%, a viability, T/C [17] of 110% and a viability, T/C [18] of 93.4%. The viability, T/C [19] was 110%, the viability, T/C [20] was 99.4% and the viability, T/C [21] was 78.1%. It also gave a viability, T/C [22] of 98.3%, a viability, T/C [23] of 101% and a viability, T/C [24] of 92.1%. The viability, T/C [25] was 97.1%, the viability, T/C [26] was 91% and the viability, T/C [27] was 87.3%. It also gave a viability, T/C [28] of 104%, a viability, T/C [29] of 108% and a viability, T/C [30] of 95.7%. It also gave a viability, T/C [31] of 91.2%, a viability, T/C [32] of 98.4% and a viability, T/C [33] of 103%. The viability, T/C [34] was 98.6%, the viability, T/C [35] was 108% and the viability, T/C [36] was 86.4%.
